Data reported in PMC7801115, “Preclinical in vitro screening of newly synthesised amidino substituted benzimidazoles and benzothiazoles” (Journal of Enzyme Inhibition and Medicinal Chemistry, 2021).
Like-named read-outs stand apart in the source and are kept apart here.

How the values were obtained:
[1] = Stability in plasma; type: in vitro ADME; conditions: 37 °C
Protocol: Tested compounds (final concentration of 5 µM, 0.5% DMSO) were incubated for 4 h at 37 °C in human and mouse plasma, respectively. Aliquots were taken at different time points (0, 30, 120 and 240 min) and reaction was terminated by addition of a MeCN/MeOH (2:1) mixture, containing internal standard (diclofenac). Samples were then centrifuged (at 4500 rpm, at 4 °C, for 30 min) and resulting supernatants were subjected to LC-MS/MS analysis. The same procedure was followed for controls used in the assay: propranolol (both species), benfluorex (mouse) and eucatropine (human), respectively.
(§1) All ADME samples were analysed on a Sciex API 4000 or Sciex API4500 Triple Quadrupole Mass Spectrometer (Sciex, Framingham, MA, USA) coupled to a UHPLC System (Shimadzu Nexera X2; Shimadzu, Kyoto, Japan). Samples were injected onto an UPLC column (HALO2 C18, 2.1 × 20 mm, 2 µm or Phenomenex Luna Omega Polar C18, 30 × 2.1 mm, 1.6 µm) and eluted with a gradient at temperature of 50 °C. The mobile phase was composed of acetonitrile (with 0.1% formic acid) and 0.1% formic acid in deionised water. A total run time was 1 or 1.5 min, with the flow rate of 0.7 ml/min (under gradient conditions). A positive ion mode with turbo spray, an ion source temperature of 500 °C and a dwell time of 150 ms were utilised for mass spectrometric detection. Multiple reaction monitoring (MRM) was used at the specific transitions for each compound/control tested: compound 5c: 361.9 → 304.9; compound 5d: 344.8 → 287.9; compound 5e: 349.8 → 292.9; compound 5 g: 350.8 → 293.9; compound 5 h: 344.0 → 286.9; compound 6a: 276.9 → 220.0; compound 5 b: 319.0 → 262.0; compound 6 b: 302.1 → 245.1; compound 6c: 344.9 → 288.0; compound 6d: 333.0 → 276.0; compound 6e: 316.1 → 259.0; compound 6f: 327.1 → 270.0; compound 6 g: 377.1 → 320.1; testosterone: 289.3→ 97.1; propranolol: 260.1 → 182.8; caffeine: 195.2 → 138.1; acebutolol: 337.2 → 116.2, nicardipine: 480.2 → 315.0; verapamil: 455.4 → 165.1; amprenavir: 506.2 → 245.4; diclofenac: 296.1 → 213.7 or 296.2 → 215.3; eucatropine: 292.2 → 109.1; benfluorex: 352.1 → 230.3, and warfarin: 309.2 → 163.2

[2] = test system: A549; test: BrdU proliferation assay, 3D cell culture; type: cell-based; conditions: Homo sapiens, A549, 3D cell culture, ±SD, N = 2
Protocol: (§2) Cells were grown in 96 well Perfecta 3 D hanging drop plates 5000 cell/well for 4 days until spheres were formed (and checked under the microscope). After sphere formation cells were treated with compounds followed by 72 h incubation. Cell viability assay was performed according to the manufacturer’s instruction, using CellTiter GLO 3 D for 3 D cell culture (Promega); cell incubation was 5 min on the shaker followed by 25 min incubation in the dark. Plates were read using PE EnVision luminescence. The results for each of tested compounds are reported as growth percentages from two independent concentrations curves compared with the untreated control cells after drug exposure.
(§3) Proliferation assay was performed using Cell Proliferation ELISA, BrdU (Sigma, St. Louis, MO, USA). Briefly, 48 h hours after compound addition, 10 µM of BrdU was added to each well and incubated for following 24 h. After incubation, single cell suspension was made for 3 D cell culture in the new 96 well plate. Plates were centrifuged and supernatants were removed from each plate (for 2 D and 3 D cell culture) followed by 60 min incubation at 60° C. The rest of the proliferation assay was performed according to the manufacturer instructions.
(§4) Calculation of IC50 data, curves and QC analysis is made by using Excel tools and GraphPadPrism software (La Jolla, CA), v. 5.03. In brief, individual concentration–effect curves are generated by plotting the logarithm of the tested concentration of tested compounds (X) versus corresponding percent inhibition values (Y) using least squares (ordinary) fit. […] QC criteria parameters (Z', S:B, R2, HillSlope) were checked for every IC50 curve.

[3] = test system: NCI-H358; test: BrdU proliferation assay, 3D cell culture; type: cell-based; conditions: Homo sapiens, NCI-H358, 3D cell culture, ±SD, N = 2
Protocol: as §2, §3, §4

[4] = test system: MDCKII-hMDR1 cells; test: MDCKII-MDR1 permeability and P-glycoprotein substrate assay; type: in vitro ADME, canine cells over-expressing human MDR1; conditions: without P-gp inhibitor
Protocol: Permeability and P-glycoprotein substrate assessment was done on MDCKII-hMDR1, Madin-Darby canine epithelial cells over-expressing human MDR1 gene, coding for P-glycoprotein.
Cells were prepared for transport studies by seeding on 96-well cell culture inserts (Millipore, MA, USA) in a concentration of 0.25 × 10^6 cells per ml. The cells were fed with fresh medium 24 h post seeding and cultured to confluence for 3 days before use. On the day of experiment, the cell monolayers were washed and equilibrated with transport medium (DPBS, pH 7.4 containing 1% DMSO) with or without P-gp specific inhibitor, elacridar (2 µM) for 45 min (37 °C, 5% CO2, 95% humidity). Test compound solution consisted of test substance (10 μM) in D-PBS medium containing lucifer yellow (100 μM) and 1% DMSO. Transport assays were conducted in apical to basolateral (A2B) and basolateral to apical (B2A) directions, respectively. Monolayers were incubated with the compound solution for 60 min at 37 °C under gentle agitation. Apical and basolateral compartments were sampled at the end of the transport experiment, while donor solutions were also sampled at the beginning of the experiment in order to determine initial concentration. Test substance concentrations in both compartments were determined by LC-MS/MS. There were several controls used in the assay: 1) amprenavir (0.5 μM) served as a low permeable control, being also a P-gp substrate; 2) diclofenac (10 μM) was used as a high permeable control; 3) Lucifer yellow, a fluorescent marker for the paracellular membrane transport, was used as a control of cell monolayer integrity.
as §1

[5] = Plasma protein binding, equilibrium dialysis; type: in vitro ADME; conditions: for fraction unbound at 4 h, 5 µM: equilibrium dialysis 4 h, 37 °C; for recovery at 4 h, 5 µM: recovery in PPB experiment (value in brackets)
Protocol: The extent of binding to plasma proteins was assessed using equilibrium dialysis method. Plasma (human and mouse) was spiked with test compounds and three controls (nicardipine and verapamil in both species, acebutolol in human and caffeine in mouse plasma) to obtain final concentration of 5 µM (0.5%DMSO). Hydrated membranes were inserted into equilibrium dialysis unit (HT Dialysis) according to manufacturer’s instructions. The dialysate side was then loaded with appropriate volume of buffer, while the same volume of spiked plasma was added into sample side of the well. Incubation lasted 4 h at 37 °C with gentle shaking. Afterwards, protein precipitation was done by mixing matrix matched aliquot of plasma or buffer with 3 volumes of MeCN/MeOH (2:1) mixture, containing internal standard (diclofenac). After centrifugation (at 4500 rpm, at 4 °C, for 30 min) resulting supernatants were subjected to LC-MS/MS.
as §1

**Q.** Which remaining at 4 h, 5 µM ([1]; human plasma) does the source give for `N#Cc1ccc(-c2nc3cc(C4=NCCCN4)ccc3[nH]2)cc1` [Compound 6b, 2–(4-Cyanophenyl)-5(6)–(3,4,5,6-tetrahydropyrimidin-1-ium-2-yl)benzimidazole chloride] here?
**A.** 98%

**Q.** What about the remaining at 4 h, 5 µM ([1]; mouse plasma) of the same molecule?
**A.** 119%

**Q.** What about the IC50 [2] of the same molecule?
**A.** > 100 µM

**Q.** And the IC50 [3]?
**A.** > 100 µM

**Q.** What about the “MDCKII-MDR1 Efflux ratio” value [4] of the same molecule?
**A.** 1.13

**Q.** And the fraction unbound at 4 h, 5 µM ([5]; human plasma, read-out: PPB % bound, Human (converted))?
**A.** 0.457

**Q.** What about the recovery at 4 h, 5 µM ([5]; human plasma) of the same molecule?
**A.** 91%

**Q.** And the fraction unbound at 4 h, 5 µM ([5]; mouse plasma, read-out: PPB % bound, Mouse (converted))?
**A.** 0.365

**Q.** What about the recovery at 4 h, 5 µM ([5]; mouse plasma) of the same molecule?
**A.** 87%
